{"source": "patent US20180343865A1", "about": "“HERBICIDAL COMPOSITIONS COMPRISING ISOXAZOLO[5,4-B]PYRIDINES” (BASF SE, priority 2015, published 2018)", "type_in_all_cases": "in vivo", "key": {"Abutilon theoprasti": {"system": "Abutilon theoprasti", "assay": "Greenhouse postemergence herbicidal activity on ABUTH, 20 DAT", "summary_of_the_method": "(§1)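 Percent destruction compared with untreated controls is reported, scored 20 days after postemergence spraying at GS 12-19. Mixture synergy judged against Colby-calculated expected effect E.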"}, "Setaria viridis": {"system": "Setaria viridis", "assay": "Greenhouse postemergence herbicidal activity on SETVI, 20 DAT", "details": "post-emergence, 62.5 gai/ha, Table 8, read-out: % activity, solo application (I.A)", "experimental": "(§2) For the post emergence treatment, the plants were first grown to the 2 leaf station (GS 12) and applied at GS 12-19 depending on the species. The herbicidal compositions were suspended or emulsified in water as distribution medium and sprayed using finely distributing nozzles.\n(§3) The plants have been cultivated due to their individual requirements at 10 to 25° C. and. 20 to 35° C. The plants were irrigated due to their necessity.\nThe respective stated components A), were formulated as a 5% by weight strength emulsion concentrate containing wettol EM 31 20% and Cyclohexanone 80%. The respective stated components B), were formulated as either emulsifiable concentrates (EC), soluble liquids (SL), suspension concentrates (SC) or soluble granules (SG) as indicated in the table below. […]\nIn the following experiments, the herbicidal activity for the individual herbicide compounds (solo and mixture applications), the herbicidal succession was assessed 20 days after treatment (DAT). […]\nThe value E, which corresponds to the effect (in %) that is to be expected if the activity of the individual compounds is additive, was calculated using the method of S. R. Colby (1967) “Calculating synergistic and antagonistic responses of herbicide combinations”, Weeds 15, p. […]\n(§4) If the value observed in this manner is higher than the value E calculated according to Colby, a synergistic effect is present."}, "Amaranthus retroflexus": {"system": "Amaranthus retroflexus", "assay": "Greenhouse postemergence herbicidal activity on AMARE, 20 DAT", "details": "AMARE, postemergence; for inhibition at 62.5 g/ha: 62.5 gai/ha", "summary_of_the_method": "as §1"}, "Conyza canadiensis": {"system": "Conyza canadiensis", "assay": "Greenhouse postemergence herbicidal activity on ERICA, 20 DAT", "details": "Conyza, post-emergence, ERICA, postemergence; for inhibition at 31.25 g/ha: 31.25 gai/ha", "experimental": "as §2, §3\n(§5) The respective stated components A), were formulated as a 5% by weight strength emulsion concentrate containing wettol EM 31 20% and Cyclohexanone 80%. The respective stated components B), were formulated as either emulsifiable concentrates (EC), soluble liquids (SL), suspension concentrates (SC) or soluble granules (SG) as indicated in the table below. Component A, component B and the solvent system are introduced into the spray liquor used for applying the active compound. In the examples, the solvent used was water containing 1% Dash (Agnique ME 181 37.5%, Lutensit A-EP 22.5%, and Oleic Acid 5%) and 2% ammonium suflate.\n(§6) In the following experiments, the herbicidal activity for the individual herbicide compounds (solo and mixture applications), the herbicidal succession was assessed 20 days after treatment (DAT). The evaluation for the damage on undesired weeds caused by the chemical compositions was carried out using a scale from 0 to 100%, compared to the untreated control plants. Here, 0 means no damage and 100 means complete destruction of the plants. The plants used in the greenhouse experiments belonged to the following species:\n(§7) The value E, which corresponds to the effect (in %) that is to be expected if the activity of the individual compounds is additive, was calculated using the method of S. R. Colby (1967) “Calculating synergistic and antagonistic responses of herbicide combinations”, Weeds 15, p. 22 ff. Colby calculation for 2 way mixtures:\n(§8) where: • X=effect in percent using herbicide A at an application rate a; • Y=effect in percent using herbicide B at an application rate b; • E=expected effect (in %) of A+B at application rates a+b\nas §4"}, "Sorghum bicolor": {"system": "Sorghum bicolor", "assay": "Greenhouse postemergence herbicidal activity on SORVU, 20 DAT", "details": "Sorghum bicolor, post-emergence, 480 h, SORVU, postemergence, 20 DAT, read-out: % activity, solo (I.A)", "experimental": "as §2, §3, §5, §6, §7, §8, §4"}, "Kochia scoparia": {"system": "Kochia scoparia", "assay": "Greenhouse postemergence herbicidal activity on KCHSC, 20 DAT", "details": "for inhibition at 31.25 g/ha: 31.25 gai/ha; for inhibition at 62.5 g/ha: 62.5 gai/ha", "experimental": "as §2, §3, §5, §6, §7, §8, §4"}, "Amaranthus palmeri": {"system": "Amaranthus palmeri", "assay": "Greenhouse postemergence herbicidal activity on AMAPA, 20 DAT", "experimental": "as §2, §3, §5, §6, §7, §8, §4"}, "ALOMY": {"system": "ALOMY", "assay": "Greenhouse postemergence herbicidal activity on ALOMY, 20 DAT", "details": "Alopecurus myosuroides, post-emergence, Table 8, read-out: % activity, solo application (I.A)"}, "APESV": {"system": "APESV", "assay": "Greenhouse postemergence herbicidal activity on APESV, 20 DAT", "details": "post-emergence, Table 8, read-out: % activity, solo application (I.A)"}, "AVEFA": {"system": "AVEFA", "assay": "Greenhouse postemergence herbicidal activity on AVEFA, 20 DAT", "details": "Avena fatua, post-emergence, Table 8, read-out: % activity, solo application (I.A)"}, "[1]": {"details": "Bassia scoparia, post-emergence, Table 6, read-out: % activity, solo application (I.A)"}, "[2]": {"details": "Bassia scoparia, post-emergence, 480 h, 20 DAT, read-out: % activity, solo (I.A)"}}, "note": "Several values for one entry are separate records, joined by “and”; a condition that tells them apart may be missing. Identical values can stand only once. Like-named read-outs stand apart in the source and are kept apart here."}
{"smiles": "CC(C)c1noc2nc(C3CC3)cc(C(=O)O)c12", "note": "[(I.A)]", "values": [{"measurement": "% activity, solo (I.A)", "setting": "Abutilon theoprasti; 62.5 gai/ha, 20 DAT", "result": 98, "unit": "%"}, {"measurement": "inhibition at 7.8 g/ha", "setting": "Abutilon theoprasti; Abutilon, post-emergence, 7.8 gai/ha, Table 8, read-out: % activity, solo application (I.A)", "result": 0, "unit": "%"}, {"measurement": "inhibition at 15.6 g/ha", "setting": "Abutilon theoprasti; Abutilon, post-emergence, 15.6 gai/ha, Table 8, read-out: % activity, solo application (I.A)", "result": 0, "unit": "%"}, {"measurement": "inhibition at 31.25 g/ha", "setting": "Abutilon theoprasti; Abutilon, post-emergence, 31.25 gai/ha, Table 8, read-out: % activity, solo application (I.A)", "result": 20, "unit": "%"}, {"measurement": "inhibition at 62.5 g/ha", "setting": "Abutilon theoprasti; Abutilon, post-emergence, 62.5 gai/ha, Table 6, read-out: % activity, solo application (I.A)", "result": 70, "unit": "%"}, {"measurement": "inhibition at 62.5 g/ha", "setting": "Abutilon theoprasti; Abutilon, post-emergence, 62.5 gai/ha, Table 8, read-out: % activity, solo application (I.A)", "result": 30, "unit": "%"}, {"measurement": "inhibition at 125 g/ha", "setting": "Abutilon theoprasti; Abutilon, post-emergence, 480 h, 125 gai/ha, 20 DAT, read-out: % activity, solo (I.A)", "result": 73, "unit": "%"}, {"measurement": "inhibition at 250 g/ha", "setting": "Abutilon theoprasti; Abutilon, post-emergence, 480 h, 250 gai/ha, 20 DAT, read-out: % activity, solo (I.A)", "result": 92, "unit": "%"}, {"measurement": "inhibition at 62.5 g/ha", "setting": "Setaria viridis", "result": 30, "unit": "%"}, {"measurement": "% activity, solo (I.A)", "setting": "Amaranthus retroflexus; 31.25 gai/ha, 20 DAT", "result": "58% and 78% and 80%"}, {"measurement": "inhibition at 62.5 g/ha", "setting": "Amaranthus retroflexus; Amaranthus retroflexus, post-emergence, 480 h, 20 DAT, read-out: % activity, solo (I.A)", "result": 94, "unit": "%"}, {"measurement": "inhibition at 125 g/ha", "setting": "Amaranthus retroflexus; Amaranthus retroflexus, post-emergence, 480 h, 125 gai/ha, 20 DAT, read-out: % activity, solo (I.A)", "result": 93, "unit": "%"}, {"measurement": "inhibition at 7.8 g/ha", "setting": "Amaranthus retroflexus; Amaranthus retroflexus, post-emergence, 7.8 gai/ha, Table 8, read-out: % activity, solo application (I.A)", "result": 0, "unit": "%"}, {"measurement": "inhibition at 15.6 g/ha", "setting": "Amaranthus retroflexus; Amaranthus retroflexus, post-emergence, 15.6 gai/ha, Table 8, read-out: % activity, solo application (I.A)", "result": 15, "unit": "%"}, {"measurement": "inhibition at 31.25 g/ha", "setting": "Amaranthus retroflexus; Amaranthus retroflexus, post-emergence, 31.25 gai/ha, Table 6, read-out: % activity, solo application (I.A)", "result": 65, "unit": "%"}, {"measurement": "inhibition at 62.5 g/ha", "setting": "Amaranthus retroflexus; Amaranthus retroflexus, post-emergence, Table 8, read-out: % activity, solo application (I.A)", "result": 85, "unit": "%"}, {"measurement": "inhibition at 15.6 g/ha", "setting": "Conyza canadiensis; 480 h, 15.6 gai/ha, 20 DAT, read-out: % activity, solo (I.A)", "result": 40, "unit": "%"}, {"measurement": "inhibition at 31.25 g/ha", "setting": "Conyza canadiensis; 480 h, 20 DAT, read-out: % activity, solo (I.A)", "result": 40, "unit": "%"}, {"measurement": "inhibition at 62.5 g/ha", "setting": "Conyza canadiensis; 480 h, 62.5 gai/ha, 20 DAT, read-out: % activity, solo (I.A)", "result": 90, "unit": "%"}, {"measurement": "inhibition at 31.25 g/ha", "setting": "Conyza canadiensis; Table 8, read-out: % activity, solo application (I.A)", "result": 35, "unit": "%"}, {"measurement": "inhibition at 15.6 g/ha", "setting": "Sorghum bicolor; 15.6 gai/ha", "result": 30, "unit": "%"}, {"measurement": "inhibition at 31.25 g/ha", "setting": "Sorghum bicolor; 31.25 gai/ha", "result": 30, "unit": "%"}, {"measurement": "inhibition at 62.5 g/ha", "setting": "Sorghum bicolor; 62.5 gai/ha", "result": 30, "unit": "%"}, {"measurement": "inhibition at 125 g/ha", "setting": "Sorghum bicolor; 125 gai/ha", "result": 40, "unit": "%"}, {"measurement": "% activity, solo (I.A)", "setting": "Kochia scoparia; 125 gai/ha, 20 DAT", "result": 95, "unit": "%"}, {"measurement": "inhibition at 31.25 g/ha", "setting": "Kochia scoparia; [1]", "result": 30, "unit": "%"}, {"measurement": "inhibition at 62.5 g/ha", "setting": "Kochia scoparia; [1]", "result": 63, "unit": "%"}, {"measurement": "inhibition at 31.25 g/ha", "setting": "Kochia scoparia; [2]", "result": 35, "unit": "%"}, {"measurement": "inhibition at 62.5 g/ha", "setting": "Kochia scoparia; [2]", "result": 68, "unit": "%"}, {"measurement": "inhibition at 125 g/ha", "setting": "Kochia scoparia; Bassia scoparia, post-emergence, 480 h, 125 gai/ha, 20 DAT, read-out: % activity, solo (I.A)", "result": 90, "unit": "%"}, {"measurement": "% activity, solo (I.A)", "setting": "Amaranthus palmeri; 62.5 gai/ha", "result": 89, "unit": "%"}, {"measurement": "inhibition at 15.6 g/ha", "setting": "Amaranthus palmeri; Amaranthus palmeri, post-emergence, 480 h, 15.6 gai/ha, read-out: % activity, solo (I.A)", "result": 5, "unit": "%"}, {"measurement": "inhibition at 31.25 g/ha", "setting": "Amaranthus palmeri; Amaranthus palmeri, post-emergence, 480 h, 31.25 gai/ha, read-out: % activity, solo (I.A)", "result": 80, "unit": "%"}, {"measurement": "inhibition at 62.5 g/ha", "setting": "Amaranthus palmeri; Amaranthus palmeri, post-emergence, 480 h, 62.5 gai/ha, read-out: % activity, solo (I.A)", "result": 80, "unit": "%"}, {"measurement": "inhibition at 15.6 g/ha", "setting": "ALOMY; 15.6 gai/ha", "result": 0, "unit": "%"}, {"measurement": "inhibition at 31.25 g/ha", "setting": "ALOMY; 31.25 gai/ha", "result": 0, "unit": "%"}, {"measurement": "inhibition at 62.5 g/ha", "setting": "ALOMY; 62.5 gai/ha", "result": 20, "unit": "%"}, {"measurement": "inhibition at 15.6 g/ha", "setting": "APESV; 15.6 gai/ha", "result": 0, "unit": "%"}, {"measurement": "inhibition at 31.25 g/ha", "setting": "APESV; 31.25 gai/ha", "result": 0, "unit": "%"}, {"measurement": "inhibition at 62.5 g/ha", "setting": "APESV; 62.5 gai/ha", "result": 0, "unit": "%"}, {"measurement": "inhibition at 15.6 g/ha", "setting": "AVEFA; 15.6 gai/ha", "result": 0, "unit": "%"}, {"measurement": "inhibition at 62.5 g/ha", "setting": "AVEFA; 62.5 gai/ha", "result": 20, "unit": "%"}]}
